# Assay results: patent US8759510B2, “Nucleoside cyclicphosphates” (Gilead Pharmasset LLC, priority 2008, dated 2014)
# Test system: HCV replicon RNA-containing Huh7 cells (clone A cells)
# Assay: HCV replicon assay
# Type: cell-based
# Conditions: Hepatitis C virus, Huh-7, 96 h, read-out: CloneA EC90, Huh7 clone A replicon cells; incubation 4 days; replicon RNA by RT-PCR; ΔCt of 3.3 = 1-log 10 reduction (EC90)
# Protocol: HCV replicon assay. HCV replicon RNA-containing Huh7 cells (clone A cells; Apath, LLC, St. Louis, Mo.) were kept at exponential growth in Dulbecco's modified Eagle's medium (high glucose) containing 10% fetal bovine serum, 4 mM L-glutamine and 1 mM sodium pyruvate, 1× nonessential amino acids, and G418 (1,000 μg/ml). Antiviral assays were performed in the same medium without G418. Cells were seeded in a 96-well plate at 1,500 cells per well, and test compounds were added immediately after seeding. Incubation time 4 days. At the end of the incubation step, total cellular RNA was isolated (RNeasy 96 kit; Qiagen). Replicon RNA and an internal control (TaqMan rRNA control reagents; Applied Biosystems) were amplified in a single-step multiplex RT-PCR protocol as recommended by the manufacturer. The HCV primers and probe were designed with Primer Express software (Applied Biosystems) and covered highly conserved 5′-untranslated region (UTR) sequences (sense primer: 5′-AGCCATGGCGTTAGTA(T)GAGTGT-3′ (SEQ ID NO: 1); antisense primer: 5′-TTCCGCAGACCACTATGG-3′ (SEQ ID NO:2); and probe; 5′-FAM-[…]-TAMRA-3′ (SEQ ID NO:3)).
# To express the antiviral effectiveness of a compound, the threshold RT-PCR cycle of the test compound was subtracted from the average threshold RT-PCR cycle of the no-drug control (ΔCtHCV). A ΔCt of 3.3 equals a 1-log 10 reduction (equal to the 90% effective concentration [EC90]) in replicon RNA levels. The cytotoxicity of the test compound could also be expressed by calculating the ΔCtrRNA values. The ΔΔCt specificity parameter could then be introduced (ΔCtHCV-ΔCtrRNA), in which the levels of HCV RNA are normalized for the rRNA levels and calibrated against the no-drug control.
row,Structure (SMILES),EC90 [nM]
1,"CO[P@]1(=O)OC[C@H]2O[C@@H](n3ccc(N)nc3=O)[C@](C)(F)[C@@H]2O1 [Compound 5, 4-Amino-1-((2R,4aR,6R,7R,7aR)-7-fluoro-2-methoxy-7-methyl-2-oxo-tetrahydro-2λ^5-furo[3,2-d][1,3,2]dioxaphosphinin-6-yl)-1H-pyrimidin-2-one]",8060
2,"COP1(=O)OC[C@H]2O[C@@H](n3cnc4c(O)nc(N)nc43)[C@](C)(F)[C@@H]2O1 (stereo partly drawn) [Compound 4, 2-Amino-9-((4aR,6R,7R,7aR)-7-fluoro-2-methoxy-7-methyl-2-oxo-tetrahydro-2λ^5-furo[3,2-d][1,3,2]dioxaphosphinin-6-yl)-9H-purin-6-ol]",11700
3,"COP1(=O)OC[C@H]2O[C@@H](n3cnc4c(NC5CCC5)nc(N)nc43)[C@](C)(F)[C@@H]2O1 (stereo partly drawn) [Compound 6, N^6-Cyclobutyl-9((4aR,6R,7R,7aR)-7-fluoro-2-methoxy-7-methyl-2-oxo-tetrahydro-2λ^5-furo[3,2-d][1,3,2]dioxaphosphinin-6-yl)-9H-purine-2,6-diamine]",1550

# Same assay, conditions: Hepatitis C virus, Huh-7, 96 h; Huh7 clone A replicon cells; incubation 4 days; replicon RNA by RT-PCR; ΔCt of 3.3 = 1-log 10 reduction (EC90); read-out: CloneA EC90
row,Structure (SMILES),EC90 [nM]
1,"COc1nc(N)nc2c1ncn2[C@@H]1O[C@@H]2COP(=O)(O)O[C@H]2[C@@]1(C)F [Example 41, (4aR,6R,7R,7aR)-6-(2-Amino-6-methoxy-purin-9-yl)-7-fluoro-7-methyl-2-oxo-tetrahydro-2λ^5-furo[3,2-d][1,3,2]dioxaphosphinin-2-ol]",98
2,"CCOc1nc(N)nc2c1ncn2[C@@H]1O[C@@H]2COP(=O)(O)O[C@H]2[C@@]1(C)F [Example 45, (4aR,6R,7R,7aR)-6-(2-Amino-6-ethoxy-purin-9-yl)-7-fluoro-7-methyl-2-oxo-tetrahydro-2λ^5-furo[3,2-d][1,3,2]dioxaphosphinin-2-ol]",700
3,"CCOc1nc(N)nc2c1ncn2[C@@H]1O[C@@H]2CO[P@](=O)(OCc3ccccc3)O[C@H]2[C@@]1(C)F [Example 48, 9-((4aR,6R,7R,7aR)-2-Benzyloxy-7-fluoro-7-methyl-2-oxo-tetrahydro-2λ5-furo[3,2-d][1,3,2]dioxaphosphinin-6-yl)-6-ethoxy-9H-purin-2-ylamine]",320
4,"COc1nc(N)nc2c1ncn2[C@@H]1O[C@@H]2CO[P@](=O)(OC(C)C)O[C@H]2[C@@]1(C)F (single isomer, unassigned) [Example 43b]",60
5,"C[C@@]1(F)[C@@H]2O[P@@](=O)(OCc3ccccc3)OC[C@H]2O[C@H]1n1ccc(=O)[nH]c1=O [Compound 2b, 1-((2S,4aR,6R,7R,7aR)-2-Benzyloxy-7-fluoro-7-methyl-2-oxo-tetrahydro-2λ^5-furo[3,2-d][1,3,2]dioxaphosphinin-6-yl)-1H-pyrimidine-2,4-dione]",17700
6,"C[C@@]1(F)[C@@H]2O[P@](=O)(OC3CCCC3)OC[C@H]2O[C@H]1n1cnc2c(N3CCC3)nc(N)nc21 [Example 32a, 6-Azetidin-1-yl-9-((4aR,6R,7R,7aR)-2-cyclopentyloxy-7-fluoro-7-methyl-2-oxo-tetrahydro-2λ^5-furo[3,2-d][1,3,2]dioxaphosphinin-6-yl)-9H-purin-2-ylamine]",8540
7,"COc1nc(N)nc2c1ncn2[C@@H]1O[C@@H]2COP(=O)(OC(C)C)O[C@H]2[C@@]1(C)F (single isomer, unassigned) [Example 43a]",290
8,"C[C@@]1(F)[C@@H]2O[P@@](=O)(OCc3ccccc3)OC[C@H]2O[C@H]1n1ccc(=O)[nH]c1=O (single isomer, unassigned) [Compound 2a]",25200
9,"C[C@@]1(F)[C@@H]2O[P@@](=O)(OC3CCCC3)OC[C@H]2O[C@H]1n1cnc2c(N3CCC3)nc(N)nc21 [Example 32b, 6-Azetidin-1-yl-9-((4aR,6R,7R,7aR)-2-cyclopentyloxy-7-fluoro-7-methyl-2-oxo-tetrahydro-2λ^5-furo[3,2-d][1,3,2]dioxaphosphinin-6-yl)-9H-purin-2-ylamine]",4700
10,"C[C@@]1(F)[C@@H]2O[P@](=O)(OCC3CC3)OC[C@H]2O[C@H]1n1cnc2c(O)nc(N)nc21 (single isomer, unassigned) [Example 38b]",26600
11,"COc1nc(N)nc2c1ncn2[C@@H]1O[C@@H]2COP(=O)(OCc3ccccc3)O[C@H]2[C@@]1(C)F (stereo in doubt) [Example 44, 9-((2R,4aR,6R,7R,7aR)-2-Benzyloxy-7-fluoro-7-methyl-2-oxo-tetrahydro-2λ^5-furo[3,2-d][1,3,2]dioxaphosphinin-6-yl)-6-methoxy-9H-purin-2-ylamine]",53

# Same assay, conditions: Huh7 clone A replicon cells; incubation 4 days; replicon RNA by RT-PCR; ΔCt of 3.3 = 1-log 10 reduction (EC90); read-out: CloneA EC90
row,Structure (SMILES),EC90 [nM]
1,"CCOc1nc(N)nc2c1ncn2[C@@H]1O[C@@H]2COP(=O)(OC(C)C)O[C@H]2[C@@]1(C)F (stereo partly drawn) [Compound 19, 6-Ethoxy-9-((4aR,6R,7R,7aR)-7-fluoro-2-isopropoxy-7-methyl-2-oxo-tetrahydro-2,5-furo[3,2-d][1,3,2]dioxaphosphinin-6-yl)-9H-purin-2-yl amine]",600
2,"CCOc1nc(N)nc2c1ncn2[C@@H]1O[C@@H]2COP(=O)(OC)O[C@H]2[C@@]1(C)F (stereo partly drawn) [Compound 18, 6-Ethoxy-9-((4aR,6R,7R,7aR)-7-fluoro-2-methoxy-7-methyl-2-oxo-tetrahydro-2,5-furo[3,2-d][1,3,2]dioxaphosphinin-6-yl)-9H-purin-2-ylamine]",480

# Same assay, conditions: read-out: CloneA EC90; Huh7 clone A replicon cells; incubation 4 days; replicon RNA by RT-PCR; ΔCt of 3.3 = 1-log 10 reduction (EC90)
row,Structure (SMILES),EC90 [nM]
1,"CO[P@@]1(=O)OC[C@H]2O[C@@H](n3ccc(=O)[nH]c3=O)[C@](C)(F)[C@@H]2O1 [Compound 1a, 1-((2S,4aR,6R,7R,7aR)-7-Fluoro-2-methoxy-7-methyl-2-oxo-tetrahydro-2λ^5-furo[3,2-d][1,3,2]dioxaphosphinin-6-yl)-1H-pyrimidine-2,4-dione]",5350
2,"COP1(=O)OC[C@H]2O[C@@H](n3cnc4c(N5CCC5)nc(N)nc43)[C@](C)(F)[C@@H]2O1 (stereo partly drawn) [Compound 3, 6-Azetidin-1-yl-9-((4aR,6R,7R,7aR)-7-fluoro-2-methoxy-7-methyl-2-oxo-tetrahydro-2λ^5-furo[3,2-d][1,3,2]dioxaphosphinin-6-yl)-9H-purin-2-ylamine]",750
3,"CO[P@@]1(=O)OC[C@H]2O[C@@H](n3ccc(=O)[nH]c3=O)[C@](C)(F)[C@@H]2O1 [Compound 1b, 1-((2S,4aR,6R,7R,7aR)-7-Fluoro-2-methoxy-7-methyl-2-oxo-tetrahydro-2λ^5-furo[3,2-d][1,3,2]dioxaphosphinin-6-yl)-1H-pyrimidine-2,4-dione]",17400
